Laboratory results: ChEMBL document CHEMBL5241091, “Biguanides drugs: Past success stories and promising future for drug discovery” (Eur J Med Chem, 2021)
In brackets after ≈: the same amount, converted by molar mass.

Columns and labels:
Plasmodium falciparum [1] = assay: Antimalarial activity against Plasmodium falciparum GA3; type: functional, organism-based
Plasmodium falciparum [2] = assay: Antimalarial activity against Plasmodium falciparum CH12; type: functional, organism-based
[3] = Oral bioavailability in rat; type: ADME, organism-based; details: in vivo
Cavia porcellus = assay: Hypoglycemic activity in sc dosed guinea pig assessed as glucose lowering effect; type: functional
[4] = Half life in po dosed human; type: ADME, organism-based; details: in vivo
[5] = Inhibition of Plasmodium knowlesi DHFR
Plasmodium berghei [6] = assay: Potency index, ratio of chloroquine ED50 to test compound ED50 for antimalarial activity against Plasmodium berghei infected in mouse; type: functional
Plasmodium berghei [7] = assay: Potency index, ratio of cycloguanil ED50 to test compound ED50 for antimalarial activity against Plasmodium berghei infected in mouse; type: functional
[8] = Toxicity in rat; details: in vivo
Homo sapiens = species: Homo sapiens; assay: Antidiabetic activity in human assessed as reduction in hepatic glucose output; type: functional; design: scale not given: the % may be the effect or the level left
[9] = Toxicity in sc dosed mouse; type: organism-based; details: in vivo
MCF7 [10] = assay: Cytotoxicity against human MCF7 cells assessed as reduction in breast cancer stem cells at 5 mM after 48 hrs (reference value: 2.78%); type: functional; design: scale not given: the % may be the effect or the level left
SW-620 = assay: Synergistic antiproliferative activity against human SW620 cells assessed as reduction in cancer stem cells preincubated for 24 hrs followed by 5-FU addition and measured after 48 hrs (reference value: 21.30 +/- 1.40 %); type: functional; design: scale not given: the % may be the effect or the level left
MCF7 [11] = assay: Cytotoxicity against human MCF7 cells assessed as reduction in breast cancer stem cells at 1 mM after 48 hrs (reference value: 2.78%); type: functional; design: scale not given: the % may be the effect or the level left
[12] = Toxicity in po dosed mouse; type: organism-based; details: in vivo
Streptococcus = assay: Antibacterial activity against Streptococcus beta-haemolyticus; type: functional
Clostridium septicum = assay: Antibacterial activity against Clostridium septicum; type: functional
Streptococcus pyogenes = assay: Antibacterial activity against Streptococcus pyogenes; type: functional

CC(C)/N=C(N)/N=C(\N)NOCCCOc1cc(Cl)c(Cl)cc1Cl
IC50 (Plasmodium falciparum [1]): 0.532 µg/mL (≈ 1.34 µM) | IC50 (Plasmodium falciparum [2]): 326 ng/mL (≈ 0.822 µM)

CC1(C)N=C(N)N=C(N)N1OCCCOc1cc(Cl)c(Cl)cc1Cl
bioavailability [3]: ≤ 1% | IC50 (Plasmodium falciparum [2]): 0.05 ng/mL (≈ 0.000127 µM)

CCCCNC(=N)NC(=N)N [BUFORMIN]
MED (Cavia porcellus): 20 mg

CC(C)NC(=N)NC(=N)Nc1ccc(Cl)c(Cl)c1 [CHLORPROGUANIL]
half-life [4]: 35 h

CC1(C)N=C(N)N=C(N)N1OCc1ccc(Cl)c(Cl)c1 [CLOCIGUANIL]
EC50 [5]: 1 pM | Ratio ED50 (Plasmodium berghei [6]): 10 | Ratio ED50 (Plasmodium berghei [7]): 30

CN(C)C(=N)NC(=N)N [METFORMIN]
LD50 [8]: 1000 mg/kg | Activity (Homo sapiens): >=75% | LD50 [9]: 2200 mg/kg | MED (Cavia porcellus): 75 mg | Activity (MCF7 [10]): 1.29% | Activity (SW-620): 15.13% | Activity (MCF7 [11]): 2.2% | LD50 [12]: 1450 mg/kg

N=C(N)/N=C(\N)N1CCOCC1 [MOROXYDINE]
LD50 [9]: 225 mg/kg | LD50 [12]: > 6250 mg/kg

N=C(N)NC(=N)NCCc1ccccc1 [PHENFORMIN]
MED (Cavia porcellus): 7.5 mg

N=C(NC(=N)N1CCN(C(=N)NC(=N)Nc2ccc(Cl)cc2)CC1)Nc1ccc(Cl)cc1 [PICLOXYDINE]
MIC (Streptococcus): 760 µg/mL (≈ 1600 µM) | MIC (Clostridium septicum): 300 µg/mL (≈ 631 µM) | MIC (Streptococcus pyogenes): 760 µg/mL (≈ 1600 µM)
